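All cell lines were grown in 96-well plates and treated with compound for 48 hours. GI50 = concentration required for 50% inhibition of growth. TGI marks complete inhibition of growth.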
Experiments:
Experiment in all cases: NCI tumour cell line growth inhibition, 48 h
KM20L2 colon = system: KM20L2 colon
DLD-1 colon = system: DLD-1 colon
HL-60(TB) leukemia = system: HL-60(TB) leukemia
DMS 273 small cell lung = system: DMS 273 small cell lung
SF-539 CNS = system: SF-539 CNS
MALME-3M melanoma = system: MALME-3M melanoma
HOP-62 NSCLC = system: HOP-62 NSCLC
A549 NSCLC = system: A549 NSCLC
NCI-H23 lung = system: NCI-H23 lung
HCC-2998 colon = system: HCC-2998 colon
NCI-H460 lung = system: NCI-H460 lung
SR leukemia = system: SR leukemia
EKVX NSCLC = system: EKVX NSCLC
OVCAR-4 ovarian = system: OVCAR-4 ovarian
UO-31 renal = system: UO-31 renal
CCRF-CEM leukemia = system: CCRF-CEM leukemia
SF-268 CNS = system: SF-268 CNS
786-0 renal = system: 786-0 renal
SK-MEL-28 melanoma = system: SK-MEL-28 melanoma
UACC-62 melanoma = system: UACC-62 melanoma
SF-295 CNS = system: SF-295 CNS
HOP-92 NSCLC = system: HOP-92 NSCLC
SNB-78 CNS = system: SNB-78 CNS
ACHN renal = system: ACHN renal
CAKI-1 renal = system: CAKI-1 renal
HCT-116 colon = system: HCT-116 colon
SK-OV-3 ovarian = system: SK-OV-3 ovarian
SN12C renal = system: SN12C renal
HOP-18 NSCLC = system: HOP-18 NSCLC
U251 CNS = system: U251 CNS
LOX IMVI melanoma = system: LOX IMVI melanoma
RPMI-8226 leukemia = system: RPMI-8226 leukemia
DMS 114 small cell lung = system: DMS 114 small cell lung
UACC-257 melanoma = system: UACC-257 melanoma
TK-10 renal = system: TK-10 renal
OVCAR-3 ovarian = system: OVCAR-3 ovarian
SW-620 colon = system: SW-620 colon
K-562 leukemia = system: K-562 leukemia
COLO 205 colon = system: COLO 205 colon
SK-MEL-2 melanoma = system: SK-MEL-2 melanoma
KM12 colon = system: KM12 colon
A498 renal = system: A498 renal
NCI-H226 lung = system: NCI-H226 lung
OVCAR-8 ovarian = system: OVCAR-8 ovarian
OVCAR-5 ovarian = system: OVCAR-5 ovarian
M19-MEL melanoma = system: M19-MEL melanoma
SNB-19 CNS = system: SNB-19 CNS
HT29 colon = system: HT29 colon
XF 498 CNS = system: XF 498 CNS
M14 melanoma = system: M14 melanoma
MOLT-4 leukemia = system: MOLT-4 leukemia
SK-MEL-5 melanoma = system: SK-MEL-5 melanoma
RXF 393 renal = system: RXF 393 renal
HCT-15 colon = system: HCT-15 colon
SNB-75 CNS = system: SNB-75 CNS
NCI-H522 lung = system: NCI-H522 lung
LXFL 529 NSCLC = system: LXFL 529 NSCLC
IGROV1 ovarian = system: IGROV1 ovarian

CC[O-].CC[O-].O=Nc1ccc2cc([O-])ccc2c1.O=Nc1ccc2cc([O-])ccc2c1.[Ti+4]
GI50 (KM20L2 colon): 2.83 µM
TGI (KM20L2 colon): 8.22 µM
GI50 (DLD-1 colon): 2.45 µM
TGI (DLD-1 colon): > 21.9 µM
GI50 (HL-60(TB) leukemia): 1.2 µM
TGI (HL-60(TB) leukemia): 3.71 µM
GI50 (DMS 273 small cell lung): 1.68 µM
TGI (DMS 273 small cell lung): 3.11 µM
GI50 (SF-539 CNS): 1.82 µM
TGI (SF-539 CNS): 3.28 µM
GI50 (MALME-3M melanoma): 1.69 µM
TGI (MALME-3M melanoma): 3.06 µM
GI50 (HOP-62 NSCLC): 3.3 µM
TGI (HOP-62 NSCLC): 10.5 µM
GI50 (A549 NSCLC): 2.14 µM
TGI (A549 NSCLC): 4.85 µM
GI50 (NCI-H23 lung): 1.46 µM
TGI (NCI-H23 lung): 3.19 µM
GI50 (HCC-2998 colon): 3.3 µM
TGI (HCC-2998 colon): 14.2 µM
GI50 (NCI-H460 lung): 3.1 µM
TGI (NCI-H460 lung): > 100 µM
GI50 (SR leukemia): 0.0107 µM
TGI (SR leukemia): 2.95 µM
GI50 (EKVX NSCLC): 3.77 µM
TGI (EKVX NSCLC): 11.8 µM
GI50 (OVCAR-4 ovarian): 1.76 µM
TGI (OVCAR-4 ovarian): 3.2 µM
GI50 (UO-31 renal): 1.78 µM
TGI (UO-31 renal): 3.63 µM
GI50 (CCRF-CEM leukemia): 2.71 µM
TGI (CCRF-CEM leukemia): > 27.3 µM
GI50 (SF-268 CNS): 2.29 µM
TGI (SF-268 CNS): 5.78 µM
GI50 (786-0 renal): 1.61 µM
TGI (786-0 renal): 3.05 µM
GI50 (SK-MEL-28 melanoma): 1.81 µM
TGI (SK-MEL-28 melanoma): 3.4 µM
GI50 (UACC-62 melanoma): 2.44 µM
GI50 (SF-295 CNS): 1.8 µM
TGI (SF-295 CNS): 10.5 µM
GI50 (HOP-92 NSCLC): 1.96 µM
TGI (HOP-92 NSCLC): 6.1 µM
GI50 (SNB-78 CNS): 2.79 µM
GI50 (ACHN renal): 1.58 µM
TGI (ACHN renal): 2.96 µM
GI50 (CAKI-1 renal): 3.76 µM
TGI (CAKI-1 renal): 12.2 µM
GI50 (HCT-116 colon): 1.77 µM
TGI (HCT-116 colon): 3.22 µM
GI50 (SK-OV-3 ovarian): 14.6 µM
TGI (SK-OV-3 ovarian): 20 µM
GI50 (SN12C renal): 1.74 µM
TGI (SN12C renal): 3.16 µM
GI50 (HOP-18 NSCLC): 1.49 µM
TGI (HOP-18 NSCLC): 2.82 µM
GI50 (U251 CNS): 1.77 µM
TGI (U251 CNS): 3.48 µM
GI50 (LOX IMVI melanoma): 1.66 µM
TGI (LOX IMVI melanoma): 4.14 µM
GI50 (RPMI-8226 leukemia): 1.51 µM
TGI (RPMI-8226 leukemia): 4.6 µM
GI50 (DMS 114 small cell lung): 1.95 µM
TGI (DMS 114 small cell lung): 6.06 µM
GI50 (UACC-257 melanoma): 1.61 µM
TGI (UACC-257 melanoma): 3.14 µM
GI50 (TK-10 renal): 3.67 µM
TGI (TK-10 renal): 8.17 µM
GI50 (OVCAR-3 ovarian): 1.44 µM
TGI (OVCAR-3 ovarian): 3.82 µM
GI50 (SW-620 colon): 1.97 µM
TGI (SW-620 colon): 4.06 µM
GI50 (K-562 leukemia): 2.85 µM
TGI (K-562 leukemia): > 100 µM
GI50 (COLO 205 colon): 2.2 µM
TGI (COLO 205 colon): 6.54 µM
GI50 (SK-MEL-2 melanoma): 2.13 µM
TGI (SK-MEL-2 melanoma): 4.75 µM
GI50 (KM12 colon): 1.94 µM
TGI (KM12 colon): 4.65 µM
GI50 (A498 renal): 9.01 µM
TGI (A498 renal): 27.3 µM
GI50 (NCI-H226 lung): 1.67 µM
TGI (NCI-H226 lung): 3.86 µM
GI50 (OVCAR-8 ovarian): 1.47 µM
TGI (OVCAR-8 ovarian): 3.28 µM
GI50 (OVCAR-5 ovarian): 2.36 µM
TGI (OVCAR-5 ovarian): 3.84 µM
GI50 (M19-MEL melanoma): 0.728 µM
TGI (M19-MEL melanoma): 3.25 µM
GI50 (SNB-19 CNS): 3.61 µM
TGI (SNB-19 CNS): 13.2 µM

N#CC1(c2nc3ccccc3o2)C(=O)C(=O)N(c2ccc(Cl)c(Cl)c2)C(=O)C1=O
TGI (HT29 colon): > 100 µM
TGI (KM20L2 colon): > 100 µM
TGI (DLD-1 colon): > 100 µM
TGI (HL-60(TB) leukemia): > 100 µM
TGI (DMS 273 small cell lung): > 100 µM
TGI (MALME-3M melanoma): > 100 µM
TGI (HOP-62 NSCLC): > 100 µM
TGI (A549 NSCLC): > 100 µM
TGI (NCI-H23 lung): > 100 µM
TGI (HCC-2998 colon): > 100 µM
TGI (NCI-H460 lung): > 100 µM
TGI (EKVX NSCLC): > 100 µM
TGI (OVCAR-4 ovarian): > 100 µM
TGI (XF 498 CNS): > 100 µM
TGI (UO-31 renal): > 100 µM
TGI (M14 melanoma): > 100 µM
TGI (CCRF-CEM leukemia): > 100 µM
TGI (SF-268 CNS): > 100 µM
TGI (786-0 renal): > 100 µM
TGI (SK-MEL-28 melanoma): > 100 µM
TGI (SF-295 CNS): > 100 µM
TGI (HOP-92 NSCLC): > 100 µM
TGI (MOLT-4 leukemia): > 100 µM
TGI (SNB-78 CNS): > 100 µM
TGI (SK-MEL-5 melanoma): > 100 µM
TGI (ACHN renal): > 100 µM
TGI (CAKI-1 renal): > 100 µM
TGI (RXF 393 renal): > 100 µM
TGI (HCT-15 colon): > 100 µM
TGI (SNB-75 CNS): > 100 µM
TGI (SN12C renal): > 100 µM
TGI (HOP-18 NSCLC): > 100 µM
TGI (LOX IMVI melanoma): > 100 µM
TGI (RPMI-8226 leukemia): > 100 µM
TGI (UACC-257 melanoma): > 100 µM
TGI (TK-10 renal): > 100 µM
TGI (OVCAR-3 ovarian): > 100 µM
TGI (SW-620 colon): > 100 µM
TGI (K-562 leukemia): > 100 µM
TGI (COLO 205 colon): > 100 µM
TGI (NCI-H522 lung): > 100 µM
TGI (SK-MEL-2 melanoma): > 100 µM
TGI (KM12 colon): > 100 µM
TGI (NCI-H226 lung): > 100 µM
TGI (OVCAR-8 ovarian): > 100 µM
TGI (OVCAR-5 ovarian): > 100 µM
TGI (LXFL 529 NSCLC): > 100 µM
TGI (SNB-19 CNS): > 100 µM

CC1OC(OC2C(Oc3cc(O)c4c(=O)cc(-c5ccc(O)cc5)oc4c3)OC(CO)C(O)C2O)C(O)C(O)C1O (stereo not drawn)
TGI (HT29 colon): > 100 µM
TGI (KM20L2 colon): > 100 µM
TGI (DLD-1 colon): > 100 µM
TGI (HL-60(TB) leukemia): > 100 µM
TGI (DMS 273 small cell lung): > 100 µM
TGI (SF-539 CNS): > 100 µM
TGI (MALME-3M melanoma): > 100 µM
TGI (HOP-62 NSCLC): > 100 µM
TGI (A549 NSCLC): > 100 µM
TGI (NCI-H23 lung): > 100 µM
TGI (NCI-H460 lung): > 100 µM
TGI (EKVX NSCLC): > 100 µM
TGI (OVCAR-4 ovarian): > 100 µM
TGI (XF 498 CNS): > 100 µM
TGI (UO-31 renal): > 100 µM
TGI (M14 melanoma): > 100 µM
TGI (CCRF-CEM leukemia): > 100 µM
TGI (SF-268 CNS): > 100 µM
TGI (786-0 renal): > 100 µM
TGI (SK-MEL-28 melanoma): > 100 µM
TGI (UACC-62 melanoma): > 100 µM
TGI (SF-295 CNS): > 100 µM
TGI (HOP-92 NSCLC): > 100 µM
TGI (MOLT-4 leukemia): > 100 µM
TGI (SNB-78 CNS): > 100 µM
TGI (SK-MEL-5 melanoma): > 100 µM
TGI (ACHN renal): > 100 µM
TGI (CAKI-1 renal): > 100 µM
TGI (HCT-15 colon): > 100 µM
TGI (HCT-116 colon): > 100 µM
TGI (SNB-75 CNS): > 100 µM
TGI (SK-OV-3 ovarian): > 100 µM
TGI (SN12C renal): > 100 µM
TGI (HOP-18 NSCLC): > 100 µM
TGI (U251 CNS): > 100 µM
TGI (LOX IMVI melanoma): > 100 µM
TGI (RPMI-8226 leukemia): > 100 µM
TGI (DMS 114 small cell lung): > 100 µM
TGI (UACC-257 melanoma): > 100 µM
TGI (TK-10 renal): > 100 µM
TGI (OVCAR-3 ovarian): > 100 µM
TGI (K-562 leukemia): > 100 µM
TGI (COLO 205 colon): > 100 µM
TGI (NCI-H522 lung): > 100 µM
TGI (IGROV1 ovarian): > 100 µM
TGI (SK-MEL-2 melanoma): > 100 µM
TGI (KM12 colon): > 100 µM
TGI (A498 renal): > 100 µM
TGI (OVCAR-8 ovarian): > 100 µM
TGI (OVCAR-5 ovarian): > 100 µM
TGI (M19-MEL melanoma): > 100 µM
TGI (LXFL 529 NSCLC): > 100 µM
TGI (SNB-19 CNS): > 100 µM

— PubChem BioAssay (NCI)
